pKi: −log10 of the molar value.
What was measured:
5-HT2A receptor = molecular target: T1, 5-HT2A receptor (Rattus norvegicus, UniProt P14842); test: cell-based; details: read-out: 5HT2A (pKb) (converted)
T1 construct: Eight strips of tissue (0.5 cm long) were cut. and were mounted in 10 ml organ baths; tissue Charles River Laboratories; host or cells: rat aorta strips, endothelium removed
Description: The rat aorta (approximately 7 cm) was isolated and removed from the animal (male Sprague Dawley rat, Charles River Laboratories, Hollister, Calif.). The endothelium was removed mechanically. Eight strips of tissue (0.5 cm long) were cut. and were mounted in 10 ml organ baths kept at 37° C. with Krebs solution (composition in mM: NaCl (118.2), KCl (4.6), CaCl2 (2.5), MgSO4 (1.2), KH2PO4 (1.2), NaHCO3 (24.8) and dextrose (10.0)) that was constantly aerated with carbogen gas (95% O2/5% CO2) to obtain a pH of 7.4. The tissues were subjected to a resting tension of 2 g (3 times, 15 minutes apart, equilibrated in Krebs solution). The tissues were then washed 15 minutes later. Ten minutes later, the tissues were then exposed to 0.1 μM phenylephrine. At the maximal effect, 1 μM acetylcholine was added to confirm the absence of endothelium and then washed twice, 2 minutes apart.
Contractions were recorded as changes in tension from baseline and expressed as a percentage of the maximum response of the agonist (5-HT) concentration-effect curve. Agonist concentration-response curves were fitted using a nonlinear iterative fitting program (GraphPad Prism) using the relationship of Parker and Waud (Parker, R. B. and Waud, D. R. (1971). Pharmacological estimation of drug-receptor dissociation constants. Statistical evaluation. I. Agonists. J. Pharmacol. Exp. Ther., 177, 1-12). Agonist potency was expressed as EC50 (molar concentration of agonist producing 50% of the maximum response). Concentration-ratios (CRs) were determined from EC50 values in the presence and absence of antagonist and antagonist affinity estimates (pKB and pA2 values) were determined. All data are expressed as mean±s.e. mean.

[1] = molecular target: T2, human D2s dopamine receptors (Homo sapiens, UniProt P14416); test: hD2S receptor radioligand binding ([3H]spiperone); details: pKi reported on a scale of 1 through 5
T2 construct: expressed in transfected cells; host or cells: Chinese hamster ovary cells (membranes)
T2 sequence (P14416 1-414 isoform P14416-2): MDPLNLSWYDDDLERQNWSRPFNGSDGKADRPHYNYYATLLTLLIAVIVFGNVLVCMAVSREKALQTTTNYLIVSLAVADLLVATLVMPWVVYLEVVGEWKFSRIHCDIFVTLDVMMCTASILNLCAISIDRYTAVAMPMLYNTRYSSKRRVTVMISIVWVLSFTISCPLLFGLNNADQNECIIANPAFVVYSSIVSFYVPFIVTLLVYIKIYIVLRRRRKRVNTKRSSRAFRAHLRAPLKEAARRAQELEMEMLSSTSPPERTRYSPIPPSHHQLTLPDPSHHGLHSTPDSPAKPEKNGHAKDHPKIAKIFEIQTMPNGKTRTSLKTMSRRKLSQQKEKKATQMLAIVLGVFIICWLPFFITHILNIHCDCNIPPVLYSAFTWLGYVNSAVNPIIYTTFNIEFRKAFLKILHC
Description: (§1) Consistent with standard competition radioligand binding assays, the methodology was based on displacement of radioligand from tissues (or cell lines) bearing the receptor of interest (Cheng, Y. and Prusoff, W. H. (1973). Biochem. Pharmacol. 22, 3099-3108). The measurements were based on the binding of a single concentration of radiolabeled ligand in the presence of various concentrations of unlabeled ligand.
(§2) Tissues (or cellular plasma membrane fractions) were incubated in the presence of radioligand at equilibrium and in the presence of a range of concentrations of the test compounds (which were non-radiolabeled), and the displaced radioligand was separated from the membranes by filtration. Nonspecific binding was assessed by measuring displacement of the radioligand in the presence of a compound known to block binding of the radioligand to the receptor. Finally, the concentration-response relationship for radioligand displacement (corrected for non-specific binding) was used to assess binding of the test compound to the receptor.

[2] = molecular target: T3, human D2L dopamine receptors (Homo sapiens, UniProt P14416); test: hD2L receptor radioligand binding ([3H]spiperone); details: pKi reported on a scale of 1 through 5; read-out: D2L (pKi) (converted)
T3 construct: expressed in transfected cells; host or cells: insect Sf9 cells (membranes)
T3 sequence (P14416 whole entry): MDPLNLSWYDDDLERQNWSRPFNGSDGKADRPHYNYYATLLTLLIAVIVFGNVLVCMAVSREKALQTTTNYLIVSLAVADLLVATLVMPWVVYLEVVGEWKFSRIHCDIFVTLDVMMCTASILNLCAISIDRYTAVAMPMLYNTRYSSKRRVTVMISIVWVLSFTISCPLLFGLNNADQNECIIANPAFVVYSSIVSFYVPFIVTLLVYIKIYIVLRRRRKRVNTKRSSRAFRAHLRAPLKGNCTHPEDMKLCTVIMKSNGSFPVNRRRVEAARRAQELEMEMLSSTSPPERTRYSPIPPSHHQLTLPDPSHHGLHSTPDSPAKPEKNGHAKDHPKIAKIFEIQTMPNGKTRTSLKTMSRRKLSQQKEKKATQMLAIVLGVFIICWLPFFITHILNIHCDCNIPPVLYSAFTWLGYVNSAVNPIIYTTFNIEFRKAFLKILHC
Description: as §1, §2

human 5HT1A receptors = molecular target: T4, human 5HT1A receptors (Homo sapiens, UniProt P08908); test: h5-HT1A receptor radioligand binding ([3H]8OH-DPAT); details: pKi reported on a scale of 1 through 5
T4 construct: expressed in transfected cells; host or cells: Chinese hamster ovary cells (membranes)
T4 sequence (P08908 1-422): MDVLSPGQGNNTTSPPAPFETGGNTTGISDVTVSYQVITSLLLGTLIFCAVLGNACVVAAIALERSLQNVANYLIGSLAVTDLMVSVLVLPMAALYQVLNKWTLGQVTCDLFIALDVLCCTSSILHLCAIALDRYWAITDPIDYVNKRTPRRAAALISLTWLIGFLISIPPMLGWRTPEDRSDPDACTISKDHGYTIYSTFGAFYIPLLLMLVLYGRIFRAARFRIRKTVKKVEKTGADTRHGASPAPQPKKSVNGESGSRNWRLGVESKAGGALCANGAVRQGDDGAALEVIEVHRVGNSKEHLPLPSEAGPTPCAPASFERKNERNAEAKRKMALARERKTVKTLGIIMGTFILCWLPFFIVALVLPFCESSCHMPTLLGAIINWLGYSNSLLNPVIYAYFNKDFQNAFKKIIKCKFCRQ
Description: as §1, §2

human 5HT2C receptors = molecular target: T5, human 5HT2C receptors (Homo sapiens, UniProt P28335); test: h5-HT2C receptor radioligand binding ([3H]Mesulergine); details: pKi reported on a scale of 1 through 5
T5 construct: expressed in transfected cells; host or cells: human embryo kidney cells (membranes)
T5 sequence (P28335 33-458): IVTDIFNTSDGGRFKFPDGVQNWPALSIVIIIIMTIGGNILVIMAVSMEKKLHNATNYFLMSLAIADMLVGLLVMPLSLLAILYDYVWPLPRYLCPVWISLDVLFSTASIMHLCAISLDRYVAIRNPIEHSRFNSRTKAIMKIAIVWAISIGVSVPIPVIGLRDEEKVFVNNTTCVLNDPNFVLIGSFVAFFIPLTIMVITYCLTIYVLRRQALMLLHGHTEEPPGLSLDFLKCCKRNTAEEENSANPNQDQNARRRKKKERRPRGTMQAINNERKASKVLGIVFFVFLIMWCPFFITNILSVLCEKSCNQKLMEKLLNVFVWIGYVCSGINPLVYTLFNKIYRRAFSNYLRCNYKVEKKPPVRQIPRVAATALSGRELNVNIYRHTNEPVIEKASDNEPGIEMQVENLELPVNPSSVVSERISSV
Description: The measurements were based on the binding of a single concentration of radiolabeled ligand in the presence of various concentrations of unlabeled ligand.
as §2

human M3 receptors = molecular target: T6, human M3 receptors (Homo sapiens, UniProt P20309); test: hM3 receptor radioligand binding ([3H]NMS); details: pKi reported on a scale of 1 through 5; read-out: M3 (pKi) (converted)
T6 construct: expressed in transfected cells; host or cells: Chinese hamster ovary cells (membranes)
T6 sequence (P20309 whole entry): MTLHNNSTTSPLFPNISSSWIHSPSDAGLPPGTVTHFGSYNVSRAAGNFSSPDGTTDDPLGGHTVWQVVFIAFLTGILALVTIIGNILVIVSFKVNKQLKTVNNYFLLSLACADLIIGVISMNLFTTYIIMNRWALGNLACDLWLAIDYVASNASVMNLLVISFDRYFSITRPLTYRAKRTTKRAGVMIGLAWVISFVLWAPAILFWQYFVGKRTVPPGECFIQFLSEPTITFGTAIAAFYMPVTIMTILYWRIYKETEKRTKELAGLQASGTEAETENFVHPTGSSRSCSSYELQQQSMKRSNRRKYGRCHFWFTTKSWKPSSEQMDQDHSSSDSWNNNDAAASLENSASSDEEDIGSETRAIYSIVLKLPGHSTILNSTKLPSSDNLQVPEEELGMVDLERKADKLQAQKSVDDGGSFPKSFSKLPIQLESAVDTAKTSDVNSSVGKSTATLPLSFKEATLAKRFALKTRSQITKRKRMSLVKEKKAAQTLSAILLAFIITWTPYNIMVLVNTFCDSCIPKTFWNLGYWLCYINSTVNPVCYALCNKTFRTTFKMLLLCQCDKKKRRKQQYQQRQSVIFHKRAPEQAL
Description: as §1, §2

human H1 receptors = molecular target: T7, human H1 receptors (Homo sapiens, UniProt P35367); test: hH1 receptor radioligand binding ([3H]Pyrilamine); details: pKi reported on a scale of 1 through 5
T7 construct: expressed in transfected cells; host or cells: Chinese hamster ovary cells (membranes)
T7 sequence (P35367 whole entry): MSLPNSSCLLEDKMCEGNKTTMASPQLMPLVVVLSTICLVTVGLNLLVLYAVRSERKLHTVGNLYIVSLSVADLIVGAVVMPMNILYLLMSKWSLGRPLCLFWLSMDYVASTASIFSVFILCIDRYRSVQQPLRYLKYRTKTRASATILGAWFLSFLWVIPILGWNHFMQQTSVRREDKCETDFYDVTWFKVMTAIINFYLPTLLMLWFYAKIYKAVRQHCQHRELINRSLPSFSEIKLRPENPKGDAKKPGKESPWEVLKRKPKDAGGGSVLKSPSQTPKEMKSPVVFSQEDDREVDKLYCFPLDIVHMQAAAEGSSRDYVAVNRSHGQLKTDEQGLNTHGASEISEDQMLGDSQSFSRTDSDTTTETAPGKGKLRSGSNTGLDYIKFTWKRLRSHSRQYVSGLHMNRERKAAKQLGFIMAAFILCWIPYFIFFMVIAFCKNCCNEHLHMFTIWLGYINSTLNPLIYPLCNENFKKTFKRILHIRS
Description: as §1, §2

human M1 receptors = molecular target: T8, human M1 receptors (Homo sapiens, UniProt P11229); test: hM1 receptor radioligand binding ([3H]NMS); details: pKi reported on a scale of 1 through 5
T8 construct: expressed in transfected cells; host or cells: Chinese hamster ovary cells (membranes)
T8 sequence (P11229 1-460): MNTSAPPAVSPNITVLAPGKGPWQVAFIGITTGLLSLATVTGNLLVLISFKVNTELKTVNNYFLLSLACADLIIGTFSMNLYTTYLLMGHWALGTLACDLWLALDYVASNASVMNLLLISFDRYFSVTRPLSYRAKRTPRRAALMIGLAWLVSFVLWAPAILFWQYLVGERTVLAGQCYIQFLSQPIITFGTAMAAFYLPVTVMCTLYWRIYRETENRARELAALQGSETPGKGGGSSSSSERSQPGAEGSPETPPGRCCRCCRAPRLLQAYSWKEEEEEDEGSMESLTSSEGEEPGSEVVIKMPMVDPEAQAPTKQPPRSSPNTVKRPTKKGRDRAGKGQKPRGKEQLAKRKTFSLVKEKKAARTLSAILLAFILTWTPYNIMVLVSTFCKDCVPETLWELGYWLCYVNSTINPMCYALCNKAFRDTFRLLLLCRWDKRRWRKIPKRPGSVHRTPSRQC
Description: as §1, §2

human 5HT7 receptors = molecular target: T9, human 5HT7 receptors (Homo sapiens, UniProt P34969); test: h5-HT7 receptor radioligand binding ([3H]5-CT); details: pKi reported on a scale of 1 through 5; read-out: 5HT7 (pKi) (converted)
T9 construct: expressed in transfected cells; host or cells: Chinese hamster ovary cells (membranes)
T9 sequence (P34969 whole entry): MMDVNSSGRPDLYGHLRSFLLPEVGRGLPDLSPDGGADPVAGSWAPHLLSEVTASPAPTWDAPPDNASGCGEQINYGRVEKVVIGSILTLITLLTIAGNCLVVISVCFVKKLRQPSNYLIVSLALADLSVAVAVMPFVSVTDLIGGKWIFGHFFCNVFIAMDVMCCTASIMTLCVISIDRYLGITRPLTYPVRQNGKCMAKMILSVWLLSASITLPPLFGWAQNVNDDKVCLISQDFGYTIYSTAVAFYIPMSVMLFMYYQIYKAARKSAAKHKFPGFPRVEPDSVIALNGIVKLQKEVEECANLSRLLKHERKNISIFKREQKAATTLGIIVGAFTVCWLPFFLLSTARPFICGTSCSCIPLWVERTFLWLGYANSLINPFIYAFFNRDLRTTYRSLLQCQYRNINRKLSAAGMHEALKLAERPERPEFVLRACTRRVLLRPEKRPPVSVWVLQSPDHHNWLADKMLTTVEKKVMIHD
Description: as §1, §2

T1 sequence (P14842 whole entry): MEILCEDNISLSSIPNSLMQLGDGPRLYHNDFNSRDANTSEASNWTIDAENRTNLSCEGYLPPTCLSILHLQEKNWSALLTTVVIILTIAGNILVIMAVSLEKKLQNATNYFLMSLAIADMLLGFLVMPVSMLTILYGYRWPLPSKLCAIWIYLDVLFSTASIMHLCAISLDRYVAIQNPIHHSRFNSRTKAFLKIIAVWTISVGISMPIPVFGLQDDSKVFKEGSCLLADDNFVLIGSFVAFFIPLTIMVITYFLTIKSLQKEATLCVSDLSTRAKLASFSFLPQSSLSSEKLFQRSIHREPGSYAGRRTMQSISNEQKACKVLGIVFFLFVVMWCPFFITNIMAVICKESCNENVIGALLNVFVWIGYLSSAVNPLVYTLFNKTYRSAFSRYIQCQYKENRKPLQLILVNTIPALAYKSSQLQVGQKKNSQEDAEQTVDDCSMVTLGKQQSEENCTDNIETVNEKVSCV

O=C(O)CC1CN(C2=Nc3cc(Cl)ccc3Oc3ccccc32)CCN1 (stereo not drawn) [Compound E, (E)-2-(4-(8-chlorodibenzo[b,f][1,4]oxazepin-11-yl)piperazin-2-yl)acetic acid]
Kb (5-HT2A receptor): 31.6 to 97.7 nM | pKi [1]: < 5.00 | Ki [2]: > 10000 nM | pKi (human 5HT1A receptors): 5.01 to 6.00 | pKi (human 5HT2C receptors): 6.01 to 7.00 | Ki (human M3 receptors): > 10000 nM | pKi (human H1 receptors): 6.01 to 7.00 | pKi (human M1 receptors): < 5.00

CC(C)(C)COC(=O)C[C@H]1CN(C2=Nc3cc(Cl)ccc3Oc3ccccc32)CCN1 [EA, (S,E)-neopentyl 2-(4-(8-chlorodibenzo[b,f][1,4]oxazepin-11-yl)piperazin-2-yl)acetate]
Kb (5-HT2A receptor): 10 to 30.9 nM | pKi [1]: 5.01 to 5.60 | pKi (human 5HT1A receptors): 7.01 to 8.00 | pKi (human 5HT2C receptors): 7.01 to 8.00 | Ki (human M3 receptors): > 10000 nM | pKi (human H1 receptors): 6.01 to 7.00 | Ki (human 5HT7 receptors): > 10000 nM | pKi (human M1 receptors): 5.61 to 5.90

COC(C)(C)CCOC(=O)C[C@H]1CN(C2=Nc3cc(Cl)ccc3Oc3ccccc32)CCN1 [EB, (S,E)-3-methoxy-3-methylbutyl 2-(4-(8-chlorodibenzo[b,f][1,4]oxazepin-11-yl)piperazin-2-yl)acetate]
Kb (5-HT2A receptor): 10 to 30.9 nM | pKi [1]: 5.61 to 6.20 | pKi (human 5HT1A receptors): ≥ 8.01 | pKi (human 5HT2C receptors): 7.01 to 8.00 | Ki (human M3 receptors): > 10000 nM | pKi (human H1 receptors): 7.01 to 8.00 | Ki (human 5HT7 receptors): 1580 to 3890 nM | pKi (human M1 receptors): 5.01 to 5.30

CC(C)(O)CCOC(=O)C[C@H]1CN(C2=Nc3cc(Cl)ccc3Oc3ccccc32)CCN1 [EC, (S,E)-3-hydroxy-3-methylbutyl 2-(4-(8-chlorodibenzo[b,f][1,4]oxazepin-11-yl)piperazin-2-yl)acetate]
Kb (5-HT2A receptor): 10 to 30.9 nM | pKi [1]: 5.61 to 6.20 | pKi (human 5HT1A receptors): 7.01 to 8.00 | pKi (human 5HT2C receptors): 7.01 to 8.00 | Ki (human M3 receptors): > 10000 nM | pKi (human H1 receptors): 7.01 to 8.00 | Ki (human 5HT7 receptors): 631 to 1550 nM | pKi (human M1 receptors): < 5.00

CN1CCN(C2=Nc3cc(Cl)ccc3Oc3ccccc32)C[C@@H]1CC(=O)OC1CCOCC1 [DZ, (S,E)-tetrahydro-2H-pyran-4-yl 2-(4-(8-chlorodibenzo[b,f][1,4]oxazepin-11-yl)-1-methylpiperazin-2-yl)acetate]
Kb (5-HT2A receptor): 31.6 to 97.7 nM | pKi [1]: 5.01 to 5.60 | pKi (human 5HT1A receptors): 6.01 to 7.00 | pKi (human 5HT2C receptors): 6.01 to 7.00 | Ki (human M3 receptors): > 10000 nM | Ki (human 5HT7 receptors): > 10000 nM

CCOC(=O)CC1CN(C2=Nc3cc(Cl)ccc3Oc3ccccc32)CCN1C (stereo not drawn) [DN, (E)-ethyl 2-(4-(8-chlorodibenzo[b,f][1,4]oxazepin-11-yl)-1-methylpiperazin-2-yl)acetate]
Kb (5-HT2A receptor): 31.6 to 97.7 nM | pKi [1]: 5.01 to 5.60 | Ki [2]: 2510 to 9770 nM | pKi (human 5HT2C receptors): 6.01 to 7.00 | Ki (human M3 receptors): > 10000 nM | pKi (human H1 receptors): 6.01 to 7.00 | pKi (human M1 receptors): 5.31 to 5.60

From patent US20120178738A1, “DIBENZO [B,F] [1,4]OXAZAPINE COMPOUNDS” (ARYX THERAPEUTICS, INC., priority 2007, published 2012)
